Results published in patent US7173004B2, “Macrocyclic isoquinoline peptide inhibitors of hepatitis C virus” (Bristol-Myers Squibb Company, priority 2003, dated 2007).

These compounds were tested on HCV replicon (HCV 1b-377-neo replicon cells, Huh7) (assay: HCV replicon cell-based FRET assay). Details: Hepatitis C virus, Huh-7.
Experimental: HCV Replion assays were utilized in the present invention, and were prepared, conducted and validated as follows:
An HCV replicon whole cell system was established as described by Lohmann V, Korner F, Koch J, Herian U, Theilmann L, Bartenschlager R., Science 285(5424): 110–3 (1999). This system enabled us to evaluate the effects of our HCV Protease compounds on HCV RNA replication. Briefly, using the HCV strain 1B sequence described in the Lohmann paper (Assession number: AJ238799), an HCV cDNA was synthesized by Operon Technologies, Inc. (Alameda, Calif.), and the full-length replicon was then assembled in plasmid pGem9zf(+) (Promega, Madison, Wis.) using standard molecular biology techniques. The replicon consists of (i) the HCV 5′ UTR fused to the first 12 amino acids of the capsid protein, (ii) the neomycin phosphotransferase gene (neo), (iii) the IRES from encephalomyocarditis virus (EMCV), and (iv) HCV NS3 to NS5B genes and the HCV 3′ UTR. Plasmid DNAs were linearized with ScaI and RNA transcripts were synthesized in vitro using the T7 MegaScript transcription kit (Ambion, Austin, Tex.) according to manufacturer's directions. To generate cell lines, 4×10^6 Huh-7 cells (kindly provided by R. Bartenschlager and available from Health Science Research Resources Bank, Japan Health Sciences Foundation) were electroporated (GenePulser System, Bio-Rad) with 10 microgram(“μg”) of RNA transcript and plated into 100-mm dishes. After 24 h, selective media containing 1.0 milligrams/milliliter (“mg/ml”) G418 was added and media was changed every 3 to 5 days. Approximately 4 weeks after electroporation, small colonies were visible which were isolated and expanded for further analysis. These cell lines were maintained at 37° C., 5% CO2, 100% relative humidity in DMEM (Cat# 11965-084) Gibco-BRL, Rockville, Md., with 10% heat inactivated calf serum (Sigma), 10 ml of 100× penicillin/streptomycin (Cat# 15140-122) Gibco-BRL, Rockville, Md., Geneticin (Cat# 10131-027) Gibco-BRL, Rockville, Md. at 1 mg/ml. One of the cell lines (deposited as ATCC Accession No. PTA-4583 in the American Type Culture Collection) which had approximately 3,000 copies of HCV replicon RNA/cell was used for development of the assay (HCV 1b-377-neo replicon cells).
Huh7 cells, constitutively expressing the HCV replicon, were grown in Dulbecco's Modified Eagle Media (DMEM) containing 10% Fetal calf serum (FCS) and 1 mg/ml G418 (Gibco-BRL). Cells were seeded the night before (1.5×10^4 cells/well) in 96-well tissue-culture sterile plates. Compound and no compound controls were prepared in DMEM containing 4% FCS, 1:100 Penicillin/Streptomysin, 1:100 L-glutamine and 5% DMSO in the dilution plate (0.5% DMSO final concentration in the assay). Compound/DMSO mixes were added to the cells and incubated for 4 days at 37° C. After 4 days, cells were first assessed for cytotoxicity using alamar Blue (Trek Diagnotstic Systems) for a CC50 reading. The toxicity of compound (CC50) was determined by adding 1/10th volume of alamar Blue to the media incubating the cells. After 4 hr, the fluorescence signal from each well was read, with an excitation wavelength at 530 nm and an emission wavelength of 580 nm, using the Cytofluor Series 4000 (Perspective Biosystems). Plates were then rinsed thoroughly with Phosphate-Buffered Saline (PBS) (3 times 150 μl). The cells were lysed with 25 μl of a lysis assay reagent containing an HCV protease substrate (5× cell Luciferase cell culture lysis reagent (Promega #E153A) diluted to 1× with distilled water, NaCl added to 150 mM final, the FRET peptide diluted to 10 μM final from a 2 mM stock in 100% DMSO). The HCV protease substrate (FRET peptide; AnaSpec, Inc. cat #22991, described by Taliani et al. in Anal. Biochem. 240(2):60–67 (1996)) contains a fluorescence donor, EDANS, near one end of the peptide and an acceptor, DABCYL, near the other end. […]

Row | Structure (SMILES) | EC50 [nM]
1 | COc1ccc2c(OC3CC4C(=O)NC5(C(=O)O)CC5C=CCOCCCC(NC(=O)OC(C)(C)C)C(=O)N4C3)nccc2c1 (stereo not drawn) [Compound 27, 14-tert-Butoxycarbonylamino-18-(6-methoxy-isoquinolin-1-yloxy)-2,15-dioxo-10-oxa-3,16-diaza-tricyclo[14.3.0.0^4,6]nonadec-7-ene-4-carboxylic acid] | 500 to 5000
2 | CCC1(S(=O)(=O)NC(=O)C23CC2C=CCCCOC(C)C(NC(=O)OC(C)(C)C)C(=O)N2CC(Oc4nccc5cc(OC)ccc45)CC2C(=O)N3)CC1 (stereo not drawn) [Compound 70] | 50 to 500
3 | CC(C)(C)OC(=O)N[C@H]1CCCCC/C=C\[C@@H]2C[C@@]2(C(=O)NS(=O)(=O)C2(C)CC2)NC(=O)[C@@H]2C[C@@H](Oc3nccc4ccccc34)CN2C1=O [Compound 8, [18-(Isoquinolin-1-yloxy)-4-(1-methyl-cyclopropanesulfonylaminocarbonyl)-2,15-dioxo-3,16-diaza-tricyclo[14.3.0.0^4,6]nonadec-7-en-14-yl]-carbamic acid tert-butyl ester] | < 50
4 | CC(C)(C)OC(=O)N[C@H]1CCCCC/C=C\[C@@H]2C[C@@]2(C(=O)NS(=O)(=O)C2CC2)NC(=O)[C@@H]2C[C@@H](Oc3nccc4ccccc34)CN2C1=O [Compound 4, [4-Cyclopropanesulfonylaminocarbonyl-18-(isoquinolin-1-yloxy)-2,15-dioxo-3,16-diaza-tricyclo[14.3.0.0^4,6]nonadec-7-en-14-yl]-carbamic acid tert-butyl ester] | < 50
5 | COc1ccc2c(OC3CC4C(=O)NC5(C(=O)NS(=O)(=O)C6CC6)CC5C=CCOCCCC(NC(=O)OC(C)(C)C(F)(F)F)C(=O)N4C3)nccc2c1 (stereo not drawn) [Compound 39] | < 50
6 | CC(C)(C)OC(=O)N[C@H]1CCCCC/C=C\[C@@H]2C[C@@]2(C(=O)NS(=O)(=O)C2(Cc3ccccc3)CC2)NC(=O)[C@@H]2C[C@@H](Oc3nccc4ccccc34)CN2C1=O [Compound 5, [4-(1-Benzyl-cyclopropanesulfonylaminocarbonyl)-18-(isoquinolin-1-yloxy)-2,15-dioxo-3,16-diaza-tricyclo[14.3.0.0^4,6]nonadec-7-en-14-yl]-carbamic acid tert-butyl ester] | 50 to 500
7 | COc1ccc2c(OC3CC4C(=O)NC5(C(=O)NS(=O)(=O)C6CC6)CC5C=CCCCSCC(NC(=O)OC(C)C)C(=O)N4C3)nccc2c1 (stereo not drawn) [Compound 74] | < 50
8 | CC(C)(C)OC(=O)N[C@H]1CCCCC/C=C\[C@@H]2C[C@@]2(C(=O)NS(=O)(=O)C2CCC2)NC(=O)[C@@H]2C[C@@H](Oc3nccc4ccccc34)CN2C1=O [Compound 9, [4-Cyclobutanesulfonylaminocarbonyl-18-(isoquinolin-1-yloxy)-2,15-dioxo-3,16-diaza-tricyclo[14.3.0.0^4,6]nonadec-7-en-14-yl]-carbamic acid tert-butyl ester] | < 50
9 | COc1ccc2c(OC3CC4C(=O)NC5(C(=O)NS(=O)(=O)C6(C)CC6)CC5C=CCOCCCC(NC(=O)OC(C)(C)C)C(=O)N4C3)nccc2c1 (stereo not drawn) [Compound 29] | < 50
10 | COc1ccc2c(O[C@@H]3C[C@H]4C(=O)N[C@]5(C(=O)NS(=O)(=O)C6CC6)C[C@H]5/C=C\CCCS(=O)(=O)C[C@H](NC(=O)OC(C)(C)C)C(=O)N4C3)nccc2c1 [Compound 19] | 50 to 500
11 | COc1ccc2c(O[C@@H]3C[C@H]4C(=O)N[C@]5(C(=O)O)C[C@H]5/C=C\CCCOC[C@H](NC(=O)OC(C)(C)C)C(=O)N4C3)nccc2c1 [Compound 84, (1S,4R,6S,14S,18R)-7-cis-14-tert-Butoxycarbonylamino-18-(6-methoxyisoquinolin-1-yloxy)-2,15-dioxo-12-oxa-3,16-diazatricyclo[14.3.0.0^4,6]-nonadec-7-ene-4-carboxylic acid] | 500 to 5000
12 | CC(C)(C)OC(=O)N[C@H]1CCCCC/C=C\[C@@H]2C[C@@]2(C(=O)O)NC(=O)[C@@H]2C[C@@H](Oc3nccc4ccccc34)CN2C1=O [Compound 1, 14-tert-Butoxycarbonylamino-18-(isoquinolin-1-yloxy)-2,15-dioxo-3,16-diaza-tricyclo[14.3.0.0^4,6]nonadec-7-ene-4-carboxylic acid] | 500 to 5000
13 | COc1ccc2c(OC3CC4C(=O)NC5(C(=O)NS(=O)(=O)C6CC6)CC5C=CCCCOC(C)C(NC(=O)OC(C)C)C(=O)N4C3)nccc2c1 (stereo not drawn) [Compound 64] | 50 to 500
14 | CC(C)S(=O)(=O)NC(=O)[C@@]12C[C@H]1/C=C\CCCCC[C@H](NC(=O)OC(C)(C)C)C(=O)N1C[C@H](Oc3nccc4ccccc34)C[C@H]1C(=O)N2 [Compound 3, [18-(Isoquinolin-1-yloxy)-2,15-dioxo-4-(propane-2-sulfonylaminocarbonyl)-3,16-diaza-tricyclo-[14.3.0.0^4,6]nonadec-7-en-14-yl]-carbamic acid tert-butyl ester] | 50 to 500
15 | CCCNC(=O)NC1CCCCCC=CC2CC2(C(=O)NS(=O)(=O)C2CC2)NC(=O)C2CC(Oc3nccc4ccccc34)CN2C1=O (stereo not drawn) [Compound 23] | < 50
16 | CC(C)(C)OC(=O)N[C@H]1CCCCC/C=C\[C@@H]2C[C@@]2(C(=O)NS(=O)(=O)C2CC2)NC(=O)[C@@H]2C[C@@H](Oc3nc(-c4ccccc4)cc4ccccc34)CN2C1=O [Compound 58, [(Z)-(1S,4R,14S,18R)-4-cyclopropanesulfonylaminocarbonyl-2,15-dioxo-18-(3-phenyl-isoquinolin-1-yloxy)-3,16-diaza-tricyclo[14.3.0.0^4,6]nonadec-7-en-14-yl]-carbamic acid tert-butyl ester] | < 50
17 | CC1(OC(=O)NC2CCCCCC=CC3CC3(C(=O)NS(=O)(=O)C3CC3)NC(=O)C3CC(Oc4nccc5ccccc45)CN3C2=O)CCCC1 (stereo not drawn) [Compound 50] | < 50
18 | COc1c(NC2CCCCCC=CC3CC3(C(=O)NS(=O)(=O)C3CC3)NC(=O)C3CC(Oc4nccc5ccccc45)CN3C2=O)c(=O)c1=O (stereo not drawn) [Compound 21] | 50 to 500
19 | O=C(N[C@H]1CCCCC/C=C\[C@@H]2C[C@@]2(C(=O)NS(=O)(=O)C2CC2)NC(=O)[C@@H]2C[C@@H](Oc3nccc4ccccc34)CN2C1=O)OC1CCOCC1 [Compound 14, [4-Cyclopropanesulfonylaminocarbonyl-18-(isoquinolin-1-yloxy)-2,15-dioxo-3,16-diaza-tricyclo[14.3.0.0^4,6]nonadec-7-en-14-yl]-carbamic acid tetrahydro-pyran-4-yl ester] | < 50
20 | COC(=O)N[C@H]1CCCCC/C=C\[C@@H]2C[C@@]2(C(=O)NS(=O)(=O)C2CC2)NC(=O)[C@@H]2C[C@@H](Oc3nccc4ccccc34)CN2C1=O [Compound 12, [4-Cyclopropanesulfonylaminocarbonyl-18-(isoquinolin-1-yloxy)-2,15-dioxo-3,16-diaza-tricyclo[14.3.0.0^4,6]nonadec-7-en-14-yl]-carbamic acid methyl ester] | < 50
21 | COc1ccc2c(OC3CC4C(=O)NC5(C(=O)NS(=O)(=O)C6(C)CC6)CC5C=CCOCCCC(NC(=O)NC5CCCC5)C(=O)N4C3)nccc2c1 (stereo not drawn) [Compound 36] | < 50
22 | CCC1(S(=O)(=O)NC(=O)C23CC2C=CCCCS(=O)(=O)CC(NC(=O)OC(C)(C)C)C(=O)N2CC(Oc4nccc5cc(OC)ccc45)CC2C(=O)N3)CC1 (stereo not drawn) [Compound 48] | 50 to 500
23 | CCC1(S(=O)(=O)NC(=O)C23CC2C=CCOCCCC(NC(=O)NC2CCCC2)C(=O)N2CC(Oc4nccc5cc(OC)ccc45)CC2C(=O)N3)CC1 (stereo not drawn) [Compound 38] | < 50
24 | COc1ccc2c(OC3CC4C(=O)NC5(C(=O)NS(=O)(=O)C6(C)CC6)CC5C=CCCCOC(C)C(NC(=O)NC5CCCC5)C(=O)N4C3)nccc2c1 (stereo not drawn) [Compound 69] | < 50
